Legend:
Format in all cases: in vivo
Setaria faberi [1] = test: Pre-emergence herbicidal activity, SETFA; parameters: key: 5=total damage to plant; 0=no damage to plant; conditions: application pre-emergence, 1000 g/Ha, evaluated after 13 days, scale 0-5
Protocol: (§1) Seeds of a variety of test species were sown in standard soil in pots. After cultivation for one day (pre-emergence) under controlled conditions in a glasshouse (at 24/16° C., day/night; 14 hours light; 65% humidity), the plants were sprayed with an aqueous spray solution derived from the formulation of the technical active ingredient in acetone/water (50:50) solution containing 0.5% Tween 20 (polyoxyethelyene sorbitan monolaurate, CAS RN 9005-64-5). The test plants were then grown in a glasshouse under controlled conditions (at 24/16° C., day/night; 14 hours light; 65% humidity) and watered twice daily. After 13 days, the test was evaluated (5=total damage to plant; 0=no damage to plant).

Zea mays [2] = test: Pre-emergence herbicidal activity, ZEAMX; parameters: key: 5=total damage to plant; 0=no damage to plant; conditions: application pre-emergence, 1000 g/Ha, evaluated after 13 days, scale 0-5
Protocol: as §1

Abutilon theophrasti [3] = test: Pre-emergence herbicidal activity, ABUTH; parameters: key: 5=total damage to plant; 0=no damage to plant; conditions: application pre-emergence, 1000 g/Ha, evaluated after 13 days, scale 0-5
Protocol: as §1

Alopecurus myosuroides [4] = test: Post-emergence herbicidal activity, ALOMY; parameters: key: 5=total damage to plant; 0=no damage to plant; conditions: application post-emergence, 1000 g/Ha, evaluated after 13 days, scale 0-5
Protocol: (§2) Seeds of a variety of test species were sown in standard soil in pots. After 8 days cultivation (post-emergence) under controlled conditions in a glasshouse (at 24/16° C., day/night; 14 hours light; 65% humidity), the plants were sprayed with an aqueous spray solution derived from the formulation of the technical active ingredient in acetone/water (50:50) solution containing 0.5% Tween 20 (polyoxyethelyene sorbitan monolaurate, CAS RN 9005-64-5). The test plants were then grown in a glasshouse under controlled conditions (at 24/16° C., day/night; 14 hours light; 65% humidity) and watered twice daily. After 13 days, the test was evaluated (5=total damage to plant; 0=no damage to plant).

Zea mays [5] = test: Post-emergence herbicidal activity, ZEAMX; parameters: key: 5=total damage to plant; 0=no damage to plant; conditions: application post-emergence, 1000 g/Ha, evaluated after 13 days, scale 0-5
Protocol: as §2

Echinochloa crus-galli [6] = test: Pre-emergence herbicidal activity, ECHCG; parameters: key: 5=total damage to plant; 0=no damage to plant; conditions: application pre-emergence, 1000 g/Ha, evaluated after 13 days, scale 0-5
Protocol: as §1

Echinochloa crus-galli [7] = test: Post-emergence herbicidal activity, ECHCG; parameters: key: 5=total damage to plant; 0=no damage to plant; conditions: application post-emergence, 1000 g/Ha, evaluated after 13 days, scale 0-5
Protocol: as §2

Setaria faberi [8] = test: Post-emergence herbicidal activity, SETFA; parameters: key: 5=total damage to plant; 0=no damage to plant; conditions: application post-emergence, 1000 g/Ha, evaluated after 13 days, scale 0-5
Protocol: as §2

Amaranthus retroflexus [9] = test: Pre-emergence herbicidal activity, AMARE; parameters: key: 5=total damage to plant; 0=no damage to plant; conditions: application pre-emergence, 1000 g/Ha, evaluated after 13 days, scale 0-5
Protocol: as §1

Amaranthus retroflexus [10] = test: Post-emergence herbicidal activity, AMARE; parameters: key: 5=total damage to plant; 0=no damage to plant; conditions: application post-emergence, 1000 g/Ha, evaluated after 13 days, scale 0-5
Protocol: as §2

Abutilon theophrasti [11] = test: Post-emergence herbicidal activity, ABUTH; parameters: key: 5=total damage to plant; 0=no damage to plant; conditions: application post-emergence, 1000 g/Ha, evaluated after 13 days, scale 0-5
Protocol: as §2

Alopecurus myosuroides [12] = test: Pre-emergence herbicidal activity, ALOMY; conditions: application pre-emergence, 1000 g/Ha, evaluated after 13 days, scale 0-5
Protocol: as §1

| Structure (SMILES) | SETFA damage score (Setaria faberi [1]) | ZEAMX damage score (Zea mays [2]) | ABUTH damage score (Abutilon theophrasti [3]) | ALOMY damage score (Alopecurus myosuroides [4]) | ZEAMX damage score (Zea mays [5]) | ECHCG damage score (Echinochloa crus-galli [6]) | ECHCG damage score (Echinochloa crus-galli [7]) | SETFA damage score (Setaria faberi [8]) | AMARE damage score (Amaranthus retroflexus [9]) | AMARE damage score (Amaranthus retroflexus [10]) | ABUTH damage score (Abutilon theophrasti [11]) | ALOMY damage score (Alopecurus myosuroides [12]) |
| --- | --- | --- | --- | --- | --- | --- | --- | --- | --- | --- | --- | --- |
| CON1C(=O)N(c2cc3n(n2)CCC3(C)C)C(O)C1C (stereo not drawn) [Compound A1] | 4 | 3 | 5 | 4 | 5 | 5 | 5 | 5 | 5 | 5 | 5 | 4 |
| CC1C(O)N(c2cc(C(F)(F)F)n(C)n2)C(=O)N1C (stereo not drawn) [Compound A2, 4-hydroxy-1,5-dimethyl-3-[1-methyl-5-(trifluoromethyl)pyrazol-3-yl]imidazolidin-2-one] | 4 | 4 | 5 | 5 | 4 | 4 | 5 | 5 | 5 | 5 | 5 | 4 |
| CON1C(=O)N(c2cc(C(C)(C)C)n(C)n2)C(O)C1C (stereo not drawn) [Compound A3] | 4 | 3 | 5 | 5 | 4 | 4 | 5 | 5 | 5 | 5 | 5 | 4 |
| CON1C(=O)N(c2cc(C(F)(F)F)n(C)n2)C(O)C1C (stereo not drawn) [Compound A4, 4-hydroxy-1-methoxy-5-methyl-3-[1-methyl-5-(trifluoromethyl)pyrazol-3-yl]imidazolidin-2-one] | 4 | 3 | 5 | 5 | 5 | 4 | 5 | 5 | 5 | 5 | 5 | 4 |
| CN1CC(O)N(c2nn(C)c(C(C)(C)C)c2C#N)C1=O (stereo not drawn) [Compound A5] | 0 | 0 | 2 | 3 | 2 | 0 | 3 | 3 | 4 | 5 | 4 | 1 |
| CC1C(O)N(c2nn(C)c(C(C)(C)C)c2C#N)C(=O)N1C (stereo not drawn) [Compound A6] | 2 | 1 | 5 | 4 | 2 | 2 | 4 | 5 | 2 | 5 | 5 | 1 |
| CC1C(O)N(c2cc(C(C)(C)C)n(C)n2)C(=O)N1C (stereo not drawn) [Compound A7] | 5 | 2 | 4 | 4 | 4 | 4 | 5 | 5 | 5 | 5 | 5 | 4 |
| CCOC1C(O)N(c2cc(C(F)(F)F)n(C)n2)C(=O)N1C (stereo not drawn) [Compound A8, 5-ethoxy-4-hydroxy-1-methyl-3-[1-methyl-5-(trifluoromethyl)pyrazol-3-yl]imidazolidin-2-one] | 4 | 2 | 5 | 5 | 4 | 5 | 5 | 5 | 5 | 5 | 5 | 4 |
